According to US4160829A, “Antibacterial 1,2,4-oxadiazolylacetamido cephalosporins” (Gist-Brocades N.V., priority 1972, dated 1979):
Converted amounts (≈) assume the structure as drawn. Read-outs that look alike come from different tables or passages of the source.

Tests used:
Past.multo. A 723 = test: agar serial dilution test; format: cell-based, Pasteurella multocida; conditions: Pasteurella multocida; agar serial dilution, 24 hours, 37° C.; read-out: minimal inhibitory concentration (MIC)
Kleb.pneum. A 809 = test: agar serial dilution test; format: cell-based, Klebsiella pneumoniae; conditions: Klebsiella pneumoniae; agar serial dilution, 24 hours, 37° C.; read-out: minimal inhibitory concentration (MIC)
Staph.aureus A 355 [1] = test: agar serial dilution test; conditions: Staphylococcus aureus, A355, 24 h, read-out: minimal inhibitory concentration (MIC), agar serial dilution, 24 hours, 37° C.; penicillinase-producing strain
Staph.aureus A 2001 [2] = test: micro serial dilution test; format: cell-based, Staphylococcus aureus; conditions: Staphylococcus aureus, A2001, 18 h, micro serial dilution (in brackets), about 18 hours, 30° C. or 37° C.; read-out: minimal inhibitory concentration (MIC)
Staph.aureus A 2000 [3] = test: micro serial dilution test; format: cell-based, Staphylococcus aureus; conditions: Staphylococcus aureus, A2000, 18 h, micro serial dilution (in brackets), about 18 hours, 30° C. or 37° C.; read-out: minimal inhibitory concentration (MIC)
Bac.Subt.ATCC 6633 = test: agar serial dilution test; format: cell-based, Bacillus subtilis; conditions: Bacillus subtilis, ATCC6633, 24 h, agar serial dilution, 24 hours, 37° C.; read-out: minimal inhibitory concentration (MIC)
[4] = tested on: Pseud.aerug. Wyeth A 1058; test: agar serial dilution test; format: cell-based; conditions: agar serial dilution, 24 hours, 37° C.; read-out: minimal inhibitory concentration (MIC)
Staph.aureus A 2000 [5] = test: agar serial dilution test; format: cell-based, Staphylococcus aureus; conditions: Staphylococcus aureus, A2000, 24 h, agar serial dilution, 24 hours, 37° C.; read-out: minimal inhibitory concentration (MIC)
Strep.haem. A 266 [6] = test: micro serial dilution test; format: cell-based, Streptococcus haemolyticus; conditions: Streptococcus; micro serial dilution (in brackets), about 18 hours, 30° C. or 37° C.; read-out: minimal inhibitory concentration (MIC)
Dipl.pneum. L 54 = test: agar serial dilution test; format: cell-based, Diplococcus pneumoniae; conditions: Streptococcus pneumoniae; agar serial dilution, 24 hours, 37° C.; read-out: minimal inhibitory concentration (MIC)
Salm.typh. R 127 = test: agar serial dilution test; format: cell-based; conditions: 24 h, 37° C., read-out: minimal inhibitory concentration (MIC)
Pseud.aerug. 2396 = test: agar serial dilution test; format: cell-based; conditions: agar serial dilution, 24 hours, 37° C.; read-out: minimal inhibitory concentration (MIC)
Esch.coli U 20 = test: agar serial dilution test; format: cell-based, Escherichia coli; conditions: Escherichia coli
Shig.equir. T 3 = test: agar serial dilution test; format: cell-based; conditions: 24 h, 37° C., read-out: minimal inhibitory concentration (MIC)
Prot.mirab. A 1200 = test: agar serial dilution test; format: cell-based, Proteus mirabilis; conditions: Proteus mirabilis, 24 h, agar serial dilution, 24 hours, 37° C.; read-out: minimal inhibitory concentration (MIC)
Salm.dubl. P 43 = test: agar serial dilution test; format: cell-based, Salmonella dublin; conditions: Salmonella enterica; agar serial dilution, 24 hours, 37° C.; read-out: minimal inhibitory concentration (MIC)
Prot.rettg. A 821 = test: agar serial dilution test; format: cell-based, Proteus rettgeri; conditions: Providencia rettgeri, 24 h, read-out: minimal inhibitory concentration (MIC)
Haem.infl. A 1030 = test: micro serial dilution test; format: cell-based; conditions: 18 h, micro serial dilution (in brackets), about 18 hours, 30° C. or 37° C.; read-out: minimal inhibitory concentration (MIC)
Prot.mirab. L 93 = test: agar serial dilution test; format: cell-based, Proteus mirabilis; conditions: Proteus mirabilis; agar serial dilution, 24 hours, 37° C.; read-out: minimal inhibitory concentration (MIC)
Prot.mirab. H 3 = test: agar serial dilution test; format: cell-based, Proteus mirabilis; conditions: Proteus mirabilis; agar serial dilution, 24 hours, 37° C.; read-out: minimal inhibitory concentration (MIC)
Staph.aureus A 321 = test: agar serial dilution test; format: cell-based, Staphylococcus aureus; conditions: Staphylococcus aureus, A321, 24 h, agar serial dilution, 24 hours, 37° C.; read-out: minimal inhibitory concentration (MIC)
Staph.aureus A 355 [7] = test: micro serial dilution test; format: cell-based, Staphylococcus aureus; conditions: Staphylococcus aureus, A355; micro serial dilution (in brackets), about 18 hours, 30° C. or 37° C.; penicillinase-producing strain; read-out: minimal inhibitory concentration (MIC)
Strep. faec. L 80 = test: agar serial dilution test; format: cell-based, Streptococcus faecalis; conditions: Enterococcus faecalis; agar serial dilution, 24 hours, 37° C.; read-out: minimal inhibitory concentration (MIC)
Prot.morg. 2241 = test: agar serial dilution test; format: cell-based; conditions: 24 h, agar serial dilution, 24 hours, 37° C.; read-out: minimal inhibitory concentration (MIC)
Bruc.melit. A 488 = test: microbe, parasite or virus in culture; format: cell-based; conditions: Brucella melitensis, 24 h, read-out: minimal inhibitory concentration (MIC)
Pseud.aerug. H 10 = test: agar serial dilution test; format: cell-based; conditions: agar serial dilution, 24 hours, 37° C.; read-out: minimal inhibitory concentration (MIC)
Staph.aureus A 2001 [8] = test: agar serial dilution test; format: cell-based, Staphylococcus aureus; conditions: Staphylococcus aureus, A2001, 24 h, agar serial dilution, 24 hours, 37° C.; read-out: minimal inhibitory concentration (MIC)
Strep.haem. A 266 [9] = test: agar serial dilution test; format: cell-based, Streptococcus haemolyticus; conditions: Streptococcus; agar serial dilution, 24 hours, 37° C.; read-out: minimal inhibitory concentration (MIC)
[10] = blood and urine contents after intramuscular administration in rabbits; format: in vivo, rabbits "Nieuw Zeelander"; conditions: rabbit, im, intramuscular 50 mg/kg
Procedure: (d) the blood and urine contents of the above-indicated compound G and of monosodium 7-[(3-carboxymethyl-1,2,4-oxadiazol-5-yl)acetamido]-3-acetoxymethyl-3-cephem-4-carboxylate (as prepared in example 35) were determined after intramuscular administration of these compounds in an aqueous solution in rabbits, as listed below:
test animals: rabbits "Nieuw Zeelander"
Each testgroup consisted of 3 rabbits.
Vehiculum: Physiol. saline solution
Bloodsamples were taken after 1/4--1/2--1--2--4 hours Urinesamples were taken after 1--3--6--24--27 hours (in practice only the secreted amounts after 6 and 24 hours were used).
Testorganisms: Bacillus subtilis ATCC 6633 and Bacillus callidolactis E 16.
The contents of the compounds in the samples were determined microbiologically.
(Only microbiologically detected concentrations, i.e. anti-bacterially active concentrations only have been indicated and determined in relation to the original administered compound).

[11] = U20, agar serial dilution, 24 hours, 37° C., read-out: minimal inhibitory concentration (MIC)
[12] = agar serial dilution, 24 hours, 37° C.

Structure (SMILES)	MIC (Past.multo. A 723)	MIC (Kleb.pneum. A 809)	MIC (Staph.aureus A 355 [1])	MIC (Staph.aureus A 2001 [2])	MIC (Staph.aureus A 2000 [3])	MIC (Bac.Subt.ATCC 6633)	MIC [4]	MIC (Staph.aureus A 2000 [5])	MIC (Dipl.pneum. L 54)	MIC (Salm.typh. R 127)	MIC (Pseud.aerug. 2396)	MIC (Shig.equir. T 3)	MIC (Prot.mirab. A 1200)	MIC (Salm.dubl. P 43)	MIC (Haem.infl. A 1030)	MIC (Prot.mirab. L 93)	MIC (Prot.mirab. H 3)	MIC (Staph.aureus A 321)	MIC (Staph.aureus A 355 [7])	MIC (Strep. faec. L 80)	also measured
CCc1noc(CC(=O)N[C@@H]2C(=O)N3[C@@H]2SC(C)(C)[C@@H]3C(=O)O)n1 [Example 11G, sodium 6-[(3-ethyl-1,2,4-oxadiazol-5-yl)-acetamido]-penicillanate H2 O]	1 µg/mL	> 100 µg/mL	3 µg/mL	3.7 µg/mL	23 µg/mL	0.03 µg/mL	> 100 µg/mL	1.5 µg/mL	0.25 µg/mL	25 µg/mL	> 100 µg/mL	10 µg/mL	100 µg/mL	12.5 µg/mL	125 µg/mL	12.5 µg/mL	> 100 µg/mL	0.12 µg/mL	30 µg/mL	3 µg/mL	MIC (Strep.haem. A 266 [6]): 0.5 µg/mL; MIC (Esch.coli U 20; [11]): 100 µg/mL; MIC (Prot.rettg. A 821; [12]): 3 µg/mL; MIC (Prot.morg. 2241): > 100 µg/mL; MIC (Bruc.melit. A 488): 1.5 µg/mL; MIC (Pseud.aerug. H 10): > 100 µg/mL; MIC (Staph.aureus A 2001 [8]): 1 µg/mL
Cc1nc(CC(=O)N[C@@H]2C(=O)N3C(C(=O)O)=C(CN=[N+]=[N-])C[S+]([O-])[C@H]23)no1 (stereo partly drawn) [Example 19, R-sulfoxide of 7-[(5-methyl-1,2,4-oxadiazol-3-yl)-acetamido]-3-azidomethyl-3-cephem-4-carboxylic acid]	25 µg/mL (≈ 63.2 µM)	50 µg/mL (≈ 126 µM)	12.5 µg/mL (≈ 31.6 µM)	6 µg/mL (≈ 15.2 µM)	5 µg/mL (≈ 12.6 µM)	0.5 µg/mL (≈ 1.26 µM)	> 100 µg/mL	6 µg/mL (≈ 15.2 µM)	3 µg/mL (≈ 7.59 µM)	100 µg/mL (≈ 253 µM)	> 100 µg/mL	6 µg/mL (≈ 15.2 µM)	> 100 µg/mL	25 µg/mL (≈ 63.2 µM)	23 µg/mL (≈ 58.2 µM)	25 µg/mL (≈ 63.2 µM)	50 µg/mL (≈ 126 µM)	6 µg/mL (≈ 15.2 µM)	15 µg/mL (≈ 37.9 µM)	> 100 µg/mL	MIC (Strep.haem. A 266 [9]): 0.5 µg/mL (≈ 1.26 µM); MIC (Esch.coli U 20; [11]): 100 µg/mL (≈ 253 µM); MIC (Prot.rettg. A 821; [12]): 6 µg/mL (≈ 15.2 µM); MIC (Prot.morg. 2241): > 100 µg/mL; MIC (Bruc.melit. A 488): 6 µg/mL (≈ 15.2 µM); MIC (Pseud.aerug. H 10): > 100 µg/mL; MIC (Staph.aureus A 2001 [8]): 6 µg/mL (≈ 15.2 µM)
C=CCNC(=O)Cc1nc(CC(=O)N[C@@H]2C(=O)N3C(C(=O)O)=C(COC(C)=O)CS[C@H]23)no1 [Example 31, 7-[5-(N-propen-3-yl)-carbamoylmethyl-1,2,4-oxadiazol-3-yl-acetamido]-cephalosporanic acid]	1.5 µg/mL (≈ 3.13 µM)	6 µg/mL (≈ 12.5 µM)	6 µg/mL (≈ 12.5 µM)	1.2 µg/mL (≈ 2.5 µM)	1.2 µg/mL (≈ 2.5 µM)	1 µg/mL (≈ 2.09 µM)	> 100 µg/mL	3 µg/mL (≈ 6.26 µM)	1.5 µg/mL (≈ 3.13 µM)	12.5 µg/mL (≈ 26.1 µM)	> 100 µg/mL	12.5 µg/mL (≈ 26.1 µM)	25 µg/mL (≈ 52.1 µM)	6 µg/mL (≈ 12.5 µM)	≥ 125 µg/mL	6 µg/mL (≈ 12.5 µM)	25 µg/mL (≈ 52.1 µM)	1.5 µg/mL (≈ 3.13 µM)	1.9 µg/mL (≈ 3.96 µM)	25 µg/mL (≈ 52.1 µM)	MIC (Strep.haem. A 266 [6]): 2.5 µg/mL (≈ 5.21 µM); MIC (Esch.coli U 20; U20, 24 h, read-out: minimal inhibitory concentration (MIC), agar serial dilution, 24 hours, 37° C.): 12.5 µg/mL (≈ 26.1 µM); MIC (Prot.rettg. A 821): 12.5 µg/mL (≈ 26.1 µM); MIC (Prot.morg. 2241): > 100 µg/mL; MIC (Pseud.aerug. H 10): > 100 µg/mL; MIC (Staph.aureus A 2001 [8]): 3 µg/mL (≈ 6.26 µM)
CC(=O)OCC1=C(C(=O)O)N2C(=O)[C@@H](NC(=O)Cc3nc(CC(=O)O)no3)[C@H]2SC1 [Example 35, Monosodium 7-[3-carboxymethyl-1,2,4-oxadiazol-5-yl-acetamido]-cephalosporanate]	–	–	–	–	–	–	–	–	–	–	–	–	–	–	–	–	–	–	–	–	concentration at 0.5 h ([10]; serum, after 1/2 hr, read-out: Serumlevel): 93.7 µg/mL; concentration at 0.25 h ([10]; serum, after 1/4 hr, read-out: Serumlevel): 119 µg/mL; concentration at 1 h ([10]; serum, after 1 hr, read-out: Serumlevel): 56 µg/mL; concentration at 2 h ([10]; serum, after 2 hr, read-out: Serumlevel): 15.4 µg/mL; concentration at 4 h ([10]; serum, after 4 hr, read-out: Serumlevel): 1.8 µg/mL; dose excreted at 6 h ([10]; urine, after 6 hr, read-out: Secretion of compound in urine in % of the administered dose): 35.9%; dose excreted at 24 h ([10]; urine, after 24 hr, read-out: Secretion of compound in urine in % of the administered dose): 51.4%
